Source: publication PMC10969960, “Novel Anthraquinone-Based Benzenesulfonamide Derivatives and Their Analogues as Potent Human Carbonic Anhydrase Inhibitors with Antitumor Activity: Synthesis, Biological Evaluation, and In Silico Analysis” (International Journal of Molecular Sciences, 2024)
Like-named read-outs stand apart in the source and are kept apart here.

Experiments:
[1] = molecular target: T1, hCA IX (Homo sapiens, UniProt Q16790); assay: CA inhibition assay, 4-nitrophenyl acetate (4-NPA) esterase assay; assay type: biochemical; conditions: errors ±5–10% of the reported values
T1 construct: purchased Shanghai Jining Biological
Method: (§5) The inhibitory activity was evaluated by monitoring the hydrolysis of 4-nitrophenylacetate (4-NPA.).
(§6) Therefore, according to the method described by Verpoorte previously [32], 4-NPA was catalyzed into 4-nitrophenol for the determination of CA activity.
(§7) The substrate (4-NPA) was dissolved in DMSO at a substrate concentration of 1 mM. Standard hCAs II and IX (acquired from Shanghai Jining Biological) were diluted to the indicated concentrations with assay buffer and added to the cells. Different concentrations of inhibitors were added to the cells, followed by incubation at room temperature for 15 min to form complexes of inhibitors and enzymes (E-I). Then, 100 μL of E-I complex and 900 μL of substrate were successively added to a 1 mL glass cuvette and mixed immediately. […] At the same time, the non-enzymatic hydrolysis rate was determined by a blank control test. Standard hCAs II and IX were diluted to final concentrations of 1.5 ng/μL and 5 ng/μL, respectively [26, 35]. The FORECAST (x, known-y’s, known-x’s) command of Excel was used to return a predicted value through the linear regression equation to calculate the IC50 values. The experiments were repeated three times for each inhibitor concentration.

[2] = molecular target: T2, hCA II (Homo sapiens, UniProt P00918); assay: as above; assay type: biochemical; conditions: errors ±5–10% of the reported values
T2 construct: purchased Shanghai Jining Biological
Method: as §5, §6, §7

[3] = test system: MCF-7 cancer cells; assay: MTT anti-proliferative assay; assay type: cell-based; conditions: Homo sapiens, MCF7, 24 h
Method: (§8) The median growth-inhibitory concentration (IC50) in the treated cells was compared to that of untreated controls. Cells were cultured under normoxic and hypoxic conditions to evaluate the effects of the compounds on cancer cell viability.
(§9) The cell cultures were passaged once every 2–3 days.
(§10) The 3-(4,5-dimethylthiazol-2-yl)-2,5-diphenyltetrazolium bromide (MTT) assay was used to measure the cell viability. Cells were planted into 96-well plates (4 × 10^3 cells per well) and cultured in media containing different concentrations of compounds. […] The supernatant was then discarded, and 150 μL of DMSO was added to each well, followed by gentle shaking. The absorbance value at 570 nm was measured using an EL808 microplate reader (Bio-TEK Instrument, Winooski, VT, USA).

[4] = test system: MDA-MB-231 cells; assay: Annexin V-FITC/propidium iodide analysis of apoptosis; assay type: cell-based; conditions: MDA-MB-231, 24 h incubation
Method: (§1) Annexin V-FITC/propidium iodide analysis of apoptosis assays were conducted to evaluate the effect of 5c on apoptosis in the MDA-MB-231, MCF-7, and HepG2 cancer cell lines. As shown in Table 3 and Figure 4, a significant increase in the percentage of apoptotic cells (containing early and late apoptosis percentages) and a notable decrease in cell viability were observed after incubation with compound 5c for 24 h.
(§2) Cells were cultured in 6-well plates and treated with the compounds for 24 h. Approximately 1 × 10^5 cells were collected and suspended in binding buffer. Apoptosis was analyzed using an AV/PI apoptosis detection kit (Beyotime Institute of Biotechnology, Shanghai, China) with a flow cytometer (BD Bioscience, Franklin Lakes, NJ, USA).

[5] = test system: HepG2 cells; assay: as above; assay type: cell-based; conditions: HepG2, 24 h incubation
Method: as §1, §2

[6] = test system: MCF-7 cells; assay: as above; assay type: cell-based; conditions: MCF-7, 24 h incubation
Method: as §1, §2

[7] = test system: MDA-MB-231 cancer cells; assay: MTT anti-proliferative assay; assay type: cell-based; conditions: Homo sapiens, 24 h
Method: as §8, §9, §10

[8] = test system: HepG2 cell line; assay: Mitochondrial membrane potential assay (JC-1 staining); assay type: cell-based; conditions: HepG2, 20 μM, 48 h
Method: (§3) The present study investigated the involvement of mitochondria in compound-5-induced apoptosis by JC-1 staining. Red fluorescence indicates JC-1 aggregates, and green fluorescence indicates membrane potential leading to an increase in JC-1 monomers.
(§4) A mitochondrial membrane potential assay kit (Beyotime Co., Nantong, China) was used to measure the mitochondrial membrane potential with a JC-1 fluorescent probe. […] The cells were then fixed with 4% paraformaldehyde and stained with 5 mg/L JC-1 at 37 °C for 1 h. Fluorescent images were acquired using a fluorescence microscope (Olympus IX81, Olympus, Tokyo, Japan).

[9] = test system: MCF-7 cell line; assay: as above; assay type: cell-based; conditions: MCF-7, 20 μM, 48 h
Method: as §3, §4

[10] = test system: MDA-MB-231 cell line; assay: as above; assay type: cell-based; conditions: MDA-MB-231, 20 μM, 48 h
Method: as §3, §4

[11] = test system: HepG2 cancer cells; assay: MTT anti-proliferative assay; assay type: cell-based; conditions: Homo sapiens, 24 h
Method: as §8, §9, §10

[12] = hypoxic (0.5% O2), read-out: IC50 MCF-7 Hypo
[13] = normoxic, read-out: IC50 MCF-7 Normo
[14] = hypoxic (0.5% O2), read-out: IC50 MDA-MB-231 Hypo
[15] = normoxic, read-out: IC50 MDA-MB-231 Normo
[16] = hypoxic (0.5% O2), read-out: IC50 HepG2 Hypo
[17] = normoxic, read-out: IC50 HepG2 Normo

SMILES | IC50 [1] | IC50 [2] | melting point | also measured
O=C(O)c1ccc(NC(=S)NC(=O)c2ccc3c(c2)C(=O)c2ccccc2C3=O)cc1 [Compound 5a, (3-(9,10-Dioxo-9,10-Dihydroanthracene-2-Carbonyl) Thioureido) Benzoic Acid] | 217 nM | 113 nM | 221 to 221.4 °C | –
O=C(O)c1cccc(NC(=S)NC(=O)c2ccc3c(c2)C(=O)c2ccccc2C3=O)c1 [Compound 5b, 3-(3-(9,10-Dioxo-9,10-Dihydroanthracene-2-Carbonyl) Thioureido) Benzoic Acid] | 254 nM | 135 nM | – | –
NS(=O)(=O)c1ccc(NC(=S)NC(=O)c2ccc3c(c2)C(=O)c2ccccc2C3=O)cc1 [Compound 5c, 9,10-Dioxo-N-((4-Sulfamoylphenyl)Carbamothioyl)-9,10-Dihydroanthracene-2-Carboxamide] | 40.6 nM | 41.6 nM | – | IC50 [3, 12]: 28100 ± 1720 nM; IC50 [3, 13]: 34300 ± 2850 nM; Cell Viability (Lower Left %) [4]: 68.88 ± 2.30%; Total Apoptosis (L.R% + U.R%) [4]: 27.26 ± 1.76%; Cell Viability (Lower Left %) [5]: 70.12 ± 2.84%; Total Apoptosis (L.R% + U.R%) [5]: 25.06 ± 2.01%; Cell Viability (Lower Left %) [6]: 51.77 ± 2.80%; Total Apoptosis (L.R% + U.R%) [6]: 43.37 ± 3.92%; IC50 [7, 14]: 46200 ± 3930 nM; IC50 [7, 15]: 48100 ± 3230 nM; mitochondrial membrane potential [8]: reduction in mitochondrial membrane potential; mitochondrial membrane potential [9]: reduction in mitochondrial membrane potential; mitochondrial membrane potential [10]: reduction in mitochondrial membrane potential; IC50 [11, 16]: 69400 ± 5160 nM; IC50 [11, 17]: 61400 ± 5750 nM
NS(=O)(=O)c1cccc(NC(=S)NC(=O)c2ccc3c(c2)C(=O)c2ccccc2C3=O)c1 [Compound 5d, 9,10-Dioxo-N-((3-Sulfamoylphenyl)Carbamothioyl)-9,10-Dihydroanthracene-2-Carboxamide] | 73.6 nM | 64.3 nM | 146.5 to 146.8 °C | –
CC(=O)c1ccc(NC(=S)NC(=O)c2ccc3c(c2)C(=O)c2ccccc2C3=O)cc1 [Compound 5e, ((4-Acetylphenyl)Carbamothioyl)-9,10-Dioxo-9,10-Dihydroanthracene-2-Carboxamide] | 275 nM | 132 nM | 215 to 215.9 °C | –
COC(=O)c1ccc(NC(=S)NC(=O)c2ccc3c(c2)C(=O)c2ccccc2C3=O)cc1 [Compound 5f, Methyl 4-(3-(9,10-Dioxo-9,10-Dihydroanthracene-2-Carbonyl)Thioureido)Benzoate] | 190 nM | 147 nM | 211 to 211.4 °C | –
COC(=O)c1cccc(NC(=S)NC(=O)c2ccc3c(c2)C(=O)c2ccccc2C3=O)c1 [Compound 5g, Methyl 3-(3-(9,10-Dioxo-9,10-Dihydroanthracene-2-Carbonyl)Thioureido)Benzoate] | 251 nM | 238 nM | 187 to 187.3 °C | –
NS(=O)(=O)c1ccc(CCNC(=S)NC(=O)c2ccc3c(c2)C(=O)c2ccccc2C3=O)cc1 [Compound 5h, 9,10-Mioxo-N-((4-Sulfamoylphenethyl)Carbamothioyl)-9,10-Dihydroanthracene-2-Carboxamide] | 46.2 nM | 21.2 nM | 323 to 323.5 °C | IC50 [3, 12]: 57400 ± 5500 nM; IC50 [3, 13]: 63800 ± 5570 nM; IC50 [7, 14]: 81200 ± 7340 nM; IC50 [7, 15]: 75200 ± 6810 nM; IC50 [11, 16]: 80400 ± 7140 nM; IC50 [11, 17]: 81400 ± 7030 nM
CNS(=O)(=O)c1ccc(NC(=S)NC(=O)c2ccc3c(c2)C(=O)c2ccccc2C3=O)cc1 [Compound 5i, ((4-(N-Methylsulfamoyl)Phenyl)Carbamothioyl)-9,10-Anthraquinone-2-Carboxamide] | 100 nM | 76.7 nM | 207 to 207.6 °C | –
O=C(NC(=S)Nc1ccc(S(=O)(=O)Nc2ncccn2)cc1)c1ccc2c(c1)C(=O)c1ccccc1C2=O [Compound 5j] | 77.7 nM | 87.7 nM | 237 to 237.2 °C | –
CC(=O)NS(=O)(=O)c1ccc(NC(=S)NC(=O)c2ccc3c(c2)C(=O)c2ccccc2C3=O)cc1 [Compound 5k, ((4-(N-Acetylsulfamoyl)Phenyl)Carbamothioyl)-9,10-Dioxo-9,10-Dihydroanthracene-2-Carboxamide] | 227 nM | 156 nM | 192 to 192.4 °C | –
O=C(NC(=S)Nc1ccc(S(=O)(=O)Nc2nccs2)cc1)c1ccc2c(c1)C(=O)c1ccccc1C2=O [Compound 5m, 9,10-Dioxo-N-((4-(N-(Thiazol-2-yl)Sulfamoyl)Phenyl)Carbamothioyl)-9,10-Dihydroanthracene-2-Carboxamide] | 71 nM | 95.9 nM | – | –
N=C(N)NS(=O)(=O)c1ccc(NC(=S)NC(=O)c2ccc3c(c2)C(=O)c2ccccc2C3=O)cc1 [Compound 5n, ((4-(N-Carbamimidoylsulfamoyl)Phenyl)Carbamothioyl)-9,10-Dioxo-9,10-Dihydroanthracene-2-Carboxamide] | 103 nM | 98.4 nM | 206 to 206.5 °C | –
O=C(O)c1ccc(NC(=O)c2ccc3c(c2)C(=O)c2ccccc2C3=O)cc1 [Compound 6a, 4-(9,10-Dioxo-9,10-Dihydroanthracene-2-Carboxamido)Benzoic Acid] | 194 nM | 296 nM | 338 to 338.5 °C | –
O=C(O)c1cccc(NC(=O)c2ccc3c(c2)C(=O)c2ccccc2C3=O)c1 [Compound 6b, (9,10-Dioxo-9,10-Dihydroanthracene-2-Carboxamido)Benzoic Acid] | 166 nM | 274 nM | 274 to 274.6 °C | –
NS(=O)(=O)c1ccc(NC(=O)c2ccc3c(c2)C(=O)c2ccccc2C3=O)cc1 [Compound 6c, 9,10-Dioxo-N-(4-Sulfamoylphenyl)-9,10-Dihydroanthracene-2-Carboxamide] | 34.9 nM | 68.3 nM | 341 to 341.3 °C | IC50 [3, 12]: 47000 ± 4010 nM; IC50 [3, 13]: 50400 ± 4730 nM; IC50 [7, 14]: 61600 ± 5130 nM; IC50 [7, 15]: 56300 ± 4190 nM; IC50 [11, 16]: 62800 ± 5520 nM; IC50 [11, 17]: 68800 ± 4170 nM
NS(=O)(=O)c1cccc(NC(=O)c2ccc3c(c2)C(=O)c2ccccc2C3=O)c1 [Compound 6d, 9,10-Dioxo-N-(3-Sulfamoylphenyl)-9,10-Dihydroanthracene-2-Carboxamide] | 55.9 nM | 91.2 nM | 283 to 283.2 °C | –
CC(=O)c1ccc(NC(=O)c2ccc3c(c2)C(=O)c2ccccc2C3=O)cc1 [Compound 6e, N-(4-Acetylphenyl)-9,10-Dioxo-9,10-Dihydroanthracene-2-Carboxamide] | 168 nM | – | 266 to 266.5 °C | –
NS(=O)(=O)c1ccc(CCNC(=O)c2ccc3c(c2)C(=O)c2ccccc2C3=O)cc1 [Compound 6h, 9,10-Dioxo-N-(4-Sulfamoylphenethyl)-9,10-Dihydroanthracene-2-Carboxamide] | 30.1 nM | 61.8 nM | – | IC50 [3, 12]: 30300 ± 3140 nM; IC50 [3, 13]: 41400 ± 2220 nM; IC50 [7, 14]: 50400 ± 4270 nM; IC50 [7, 15]: 54200 ± 4870 nM; IC50 [11, 16]: 54300 ± 5150 nM; IC50 [11, 17]: 58200 ± 5450 nM
CNS(=O)(=O)c1ccc(NC(=O)c2ccc3c(c2)C(=O)c2ccccc2C3=O)cc1 [Compound 6i, N-(4-(N-Methylsulfamoyl)Phenyl)-9,10-Dioxo-9,10-Dihydroanthracene-2-Carboxamide] | 110 nM | 172 nM | 273 to 273.8 °C | –
CC(=O)NS(=O)(=O)c1ccc(NC(=O)c2ccc3c(c2)C(=O)c2ccccc2C3=O)cc1 [Compound 6k, N-(4-(N-Acetylsulfamoyl)Phenyl)-9,10-Dioxo-9,10-Dihydroanthracene-2-Carboxamide] | 140 nM | 170 nM | 304 to 304.3 °C | –
